Laboratory results as given in patent US20180016616A1, “METHODS AND COMPOSITIONS FOR THE DETECTION OF FUNCTIONAL CLOSTRIDIUM DIFFICILE TOXINS” (BOARD OF REGENTS OF THE UNIVERSITY OF TEXAS SYSTEM, priority 2011, published 2018).
Like-named read-outs stand apart in the source and are kept apart here.

Columns and labels:
mammalian β-glucosidases = details: cited from earlier work
[1] = test system: C. difficile toxins A and B; assay: Evaluation of chromogenic substrates for the Cdifftox Activity assay; format: biochemical, Clostridium difficile
Procedure: A Cdifftox Activity assay was used to identify fractions that contained PNPG cleavage activity. The assay consists of the Cdifftox substrate reagent composed of 10 mM PNPG, 50 mM Tris-HCl (pH 7.4), 50 mM NaCl, and 100 μM MnCl2. The assay was performed in Costar sterile polystyrene 96-well plates (Corning Inc., NY) by adding to each well 200 μl of sample or culture supernatant fluid containing the toxins and 100 μl of the reagent. The plate was incubated at 37° C. for 1-4 hrs and each reaction was stopped by the addition to the well of 40 μl of 3 M Na2CO3. Cleavage of the substrate was monitored by measuring the absorbance between 400-500 nm, with a SPECTRA max at 410 nm.
Plus 384 spectrophotometer (Molecular Devices, Sunnyvale, Calif.). To identify the best substrate for the assay, a number of substrates were evaluated including: p-nitrophenyl-α-D-glucopyranoside, 4-aminophenyl-α-D-glucopyranoside, 4-amino-phenyl-β-D-glucopyranoside, 5-benzyloxy-3-indoxyl-β-D-glucopyranoside, 5-bromo-6-chloro-3-indoxyl-β-D-glucopyranoside, 6-bromo-2-naphthyl-α-D-glucopyranoside, 6-chloro-3-indoxyl-α-D-glucopyranoside, 6-chloro-3-indoxyl-N-acetyl-beta-D-glucos-aminide, 5-bromo-3-indoxyl-β-D-galactopyranoside, and 5-bromo-4-chloro-3-indoxyl-β-D-galactopyranoside. […]

C. difficile toxin A [2] = target: T1, C. difficile toxin A (Clostridioides difficile, UniProt P16154); details: 0-300 mM
T1 sequence (P16154 whole entry, looked up): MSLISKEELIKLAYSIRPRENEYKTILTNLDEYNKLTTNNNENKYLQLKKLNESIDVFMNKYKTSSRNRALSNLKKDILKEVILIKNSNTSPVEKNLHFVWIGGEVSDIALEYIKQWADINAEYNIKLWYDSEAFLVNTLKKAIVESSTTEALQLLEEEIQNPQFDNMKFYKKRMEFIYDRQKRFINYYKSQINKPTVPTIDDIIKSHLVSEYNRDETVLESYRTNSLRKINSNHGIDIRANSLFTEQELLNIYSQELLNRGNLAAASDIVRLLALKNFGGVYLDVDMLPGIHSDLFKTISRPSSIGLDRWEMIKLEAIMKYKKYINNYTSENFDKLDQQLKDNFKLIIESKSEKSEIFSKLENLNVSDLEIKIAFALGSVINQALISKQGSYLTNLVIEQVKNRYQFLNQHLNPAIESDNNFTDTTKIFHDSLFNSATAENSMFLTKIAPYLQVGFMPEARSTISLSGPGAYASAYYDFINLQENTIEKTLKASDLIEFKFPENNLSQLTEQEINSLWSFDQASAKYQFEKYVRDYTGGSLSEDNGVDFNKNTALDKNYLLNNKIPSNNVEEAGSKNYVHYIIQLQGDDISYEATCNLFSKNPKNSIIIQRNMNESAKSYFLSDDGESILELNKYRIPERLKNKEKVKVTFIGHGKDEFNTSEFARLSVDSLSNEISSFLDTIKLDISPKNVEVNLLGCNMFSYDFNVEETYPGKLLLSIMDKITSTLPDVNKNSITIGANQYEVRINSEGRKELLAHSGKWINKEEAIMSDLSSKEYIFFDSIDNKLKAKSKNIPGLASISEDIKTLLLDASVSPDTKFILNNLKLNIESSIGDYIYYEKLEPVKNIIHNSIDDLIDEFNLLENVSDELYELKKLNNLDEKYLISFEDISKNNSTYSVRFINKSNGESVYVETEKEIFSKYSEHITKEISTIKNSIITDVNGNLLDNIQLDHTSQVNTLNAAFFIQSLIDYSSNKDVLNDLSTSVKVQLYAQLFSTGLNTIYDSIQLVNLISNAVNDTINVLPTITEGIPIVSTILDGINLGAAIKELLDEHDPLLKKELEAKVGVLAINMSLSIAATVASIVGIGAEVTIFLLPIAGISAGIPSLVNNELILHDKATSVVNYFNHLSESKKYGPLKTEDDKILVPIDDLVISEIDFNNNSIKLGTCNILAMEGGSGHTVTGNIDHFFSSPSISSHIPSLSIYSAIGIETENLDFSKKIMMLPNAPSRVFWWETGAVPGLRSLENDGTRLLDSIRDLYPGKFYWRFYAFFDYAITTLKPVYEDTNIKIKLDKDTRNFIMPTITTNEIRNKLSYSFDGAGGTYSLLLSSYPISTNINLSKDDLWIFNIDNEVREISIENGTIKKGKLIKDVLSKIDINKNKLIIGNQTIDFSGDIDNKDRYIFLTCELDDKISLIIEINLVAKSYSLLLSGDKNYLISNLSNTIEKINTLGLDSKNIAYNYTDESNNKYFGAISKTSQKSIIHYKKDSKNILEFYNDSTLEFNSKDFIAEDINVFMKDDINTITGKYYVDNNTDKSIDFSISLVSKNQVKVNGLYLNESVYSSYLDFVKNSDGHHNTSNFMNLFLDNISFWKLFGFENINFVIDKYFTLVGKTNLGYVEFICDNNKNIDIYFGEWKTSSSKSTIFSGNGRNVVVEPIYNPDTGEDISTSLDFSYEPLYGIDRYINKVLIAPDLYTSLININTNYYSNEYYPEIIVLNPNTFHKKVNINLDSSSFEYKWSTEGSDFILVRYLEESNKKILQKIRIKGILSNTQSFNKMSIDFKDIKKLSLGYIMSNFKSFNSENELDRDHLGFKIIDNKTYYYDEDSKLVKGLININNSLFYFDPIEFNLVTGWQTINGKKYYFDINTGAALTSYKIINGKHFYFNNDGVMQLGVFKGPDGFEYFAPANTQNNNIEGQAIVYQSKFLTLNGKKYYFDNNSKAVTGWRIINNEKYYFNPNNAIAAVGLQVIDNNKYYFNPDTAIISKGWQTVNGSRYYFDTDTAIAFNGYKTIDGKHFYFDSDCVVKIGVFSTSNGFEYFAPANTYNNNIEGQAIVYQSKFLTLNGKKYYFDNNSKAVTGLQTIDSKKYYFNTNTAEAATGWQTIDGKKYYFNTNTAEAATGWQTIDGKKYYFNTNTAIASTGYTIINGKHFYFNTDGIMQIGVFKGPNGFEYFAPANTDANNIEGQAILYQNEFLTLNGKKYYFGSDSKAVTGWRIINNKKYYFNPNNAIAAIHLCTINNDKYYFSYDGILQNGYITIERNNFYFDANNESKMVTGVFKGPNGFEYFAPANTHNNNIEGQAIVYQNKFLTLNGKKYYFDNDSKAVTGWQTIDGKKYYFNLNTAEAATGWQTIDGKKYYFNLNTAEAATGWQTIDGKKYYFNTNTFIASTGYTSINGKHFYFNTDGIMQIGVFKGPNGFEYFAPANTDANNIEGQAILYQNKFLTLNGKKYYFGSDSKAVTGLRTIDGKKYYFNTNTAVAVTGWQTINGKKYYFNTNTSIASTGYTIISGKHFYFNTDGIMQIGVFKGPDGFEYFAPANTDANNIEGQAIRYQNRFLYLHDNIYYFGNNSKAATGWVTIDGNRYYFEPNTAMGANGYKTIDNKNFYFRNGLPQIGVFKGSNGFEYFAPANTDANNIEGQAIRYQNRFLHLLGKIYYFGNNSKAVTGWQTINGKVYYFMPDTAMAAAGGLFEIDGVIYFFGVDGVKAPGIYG

C. difficile toxin B [3] = target: T2, C. difficile toxin B (Clostridioides difficile, UniProt P18177); details: 0-300 mM
T2 sequence (P18177 whole entry): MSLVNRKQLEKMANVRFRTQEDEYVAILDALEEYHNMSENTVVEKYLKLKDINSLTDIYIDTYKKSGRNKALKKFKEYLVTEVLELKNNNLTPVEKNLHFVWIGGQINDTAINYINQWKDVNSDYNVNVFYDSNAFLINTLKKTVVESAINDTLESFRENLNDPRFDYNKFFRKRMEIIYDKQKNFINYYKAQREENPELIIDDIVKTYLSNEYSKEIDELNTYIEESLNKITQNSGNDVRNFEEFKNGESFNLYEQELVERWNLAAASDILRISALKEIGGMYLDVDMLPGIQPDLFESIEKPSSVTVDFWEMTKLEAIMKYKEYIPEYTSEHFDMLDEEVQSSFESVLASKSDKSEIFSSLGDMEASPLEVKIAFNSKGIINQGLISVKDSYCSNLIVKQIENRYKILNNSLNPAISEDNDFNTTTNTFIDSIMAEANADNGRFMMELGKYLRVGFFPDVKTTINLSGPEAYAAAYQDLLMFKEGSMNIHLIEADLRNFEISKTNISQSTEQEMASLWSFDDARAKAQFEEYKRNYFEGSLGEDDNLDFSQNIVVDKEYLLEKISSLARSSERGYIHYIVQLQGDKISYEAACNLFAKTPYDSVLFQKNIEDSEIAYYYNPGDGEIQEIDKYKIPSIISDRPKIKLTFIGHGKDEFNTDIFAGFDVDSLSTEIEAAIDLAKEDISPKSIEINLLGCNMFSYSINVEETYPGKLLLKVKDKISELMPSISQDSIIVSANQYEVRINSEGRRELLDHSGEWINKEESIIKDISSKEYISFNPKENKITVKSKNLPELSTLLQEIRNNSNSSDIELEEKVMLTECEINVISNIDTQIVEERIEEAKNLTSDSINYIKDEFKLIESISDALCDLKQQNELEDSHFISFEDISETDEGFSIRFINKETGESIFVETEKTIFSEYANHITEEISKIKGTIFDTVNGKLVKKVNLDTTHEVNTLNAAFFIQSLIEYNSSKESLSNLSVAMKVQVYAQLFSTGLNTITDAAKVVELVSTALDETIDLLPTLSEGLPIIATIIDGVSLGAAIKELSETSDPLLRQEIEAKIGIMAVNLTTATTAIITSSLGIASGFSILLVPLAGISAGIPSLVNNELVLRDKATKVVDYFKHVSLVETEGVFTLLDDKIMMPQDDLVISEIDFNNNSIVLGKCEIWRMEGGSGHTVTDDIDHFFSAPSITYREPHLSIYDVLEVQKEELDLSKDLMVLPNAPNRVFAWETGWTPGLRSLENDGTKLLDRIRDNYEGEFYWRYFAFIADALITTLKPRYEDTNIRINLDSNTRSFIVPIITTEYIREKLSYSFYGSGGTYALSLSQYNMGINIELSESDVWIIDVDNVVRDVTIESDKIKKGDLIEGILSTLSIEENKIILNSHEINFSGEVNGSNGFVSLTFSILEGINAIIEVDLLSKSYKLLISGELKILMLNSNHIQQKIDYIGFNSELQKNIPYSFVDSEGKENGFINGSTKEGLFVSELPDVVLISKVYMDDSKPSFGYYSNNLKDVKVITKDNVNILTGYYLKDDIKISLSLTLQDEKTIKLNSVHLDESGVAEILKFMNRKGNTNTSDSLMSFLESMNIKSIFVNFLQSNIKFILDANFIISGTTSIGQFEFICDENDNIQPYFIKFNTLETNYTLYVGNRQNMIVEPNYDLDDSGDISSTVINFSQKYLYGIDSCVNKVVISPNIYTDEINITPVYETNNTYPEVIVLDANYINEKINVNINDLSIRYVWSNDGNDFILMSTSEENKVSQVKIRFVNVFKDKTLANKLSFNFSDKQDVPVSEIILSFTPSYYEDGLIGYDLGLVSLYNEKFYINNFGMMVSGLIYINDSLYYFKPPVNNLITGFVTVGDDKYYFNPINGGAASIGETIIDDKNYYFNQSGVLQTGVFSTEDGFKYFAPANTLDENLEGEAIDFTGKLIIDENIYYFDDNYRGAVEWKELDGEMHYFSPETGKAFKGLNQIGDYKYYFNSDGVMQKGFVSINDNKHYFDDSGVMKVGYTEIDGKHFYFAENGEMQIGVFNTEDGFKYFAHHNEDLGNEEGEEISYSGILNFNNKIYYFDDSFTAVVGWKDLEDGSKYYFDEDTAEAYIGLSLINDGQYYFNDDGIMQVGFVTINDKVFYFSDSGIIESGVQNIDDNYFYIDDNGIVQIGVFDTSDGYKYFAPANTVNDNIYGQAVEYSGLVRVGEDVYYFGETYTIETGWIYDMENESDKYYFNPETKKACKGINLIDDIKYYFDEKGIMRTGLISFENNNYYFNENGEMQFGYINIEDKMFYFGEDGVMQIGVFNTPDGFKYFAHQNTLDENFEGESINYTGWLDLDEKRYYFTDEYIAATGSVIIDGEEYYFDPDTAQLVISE

C. difficile spores = details: 0.1% or approximately 1.9 mM
[4] = test system: C. difficile toxins A and B; details: 0.1% or approximately 1.9 mM
C. difficile toxin A [5] = target: T1, C. difficile toxin A; assay: biochemical; details: read-out: reduction of toxin A activity (percent inhibition)
C. difficile toxin B [6] = target: T2, C. difficile toxin B; assay: biochemical; details: read-out: reduction of toxin B activity (percent inhibition)

## phosphatidylserine
Mammalian β-glucosidases
  inhibition of β-glucosidases, mode: non-competitive

## O=[N+]([O-])c1ccc(O[C@@H]2O[C@H](CO)[C@@H](O)[C@H](O)[C@H]2O)cc1 [PNPG, p-nitrophenyl-β-D-glucopyranoside]
[1]
  cleavage by the toxins compared with other substrates evaluated: most efficient and sensitive, and had the lowest background

## C[C@H](CCC(=O)NCCS(=O)(=O)O)[C@H]1CC[C@H]2[C@@H]3[C@H](O)C[C@@H]4C[C@H](O)CC[C@]4(C)[C@H]3C[C@H](O)[C@]12C [sodium taurocholate]
C. difficile toxin A [2]
  inhibition of toxin A PNPG cleavage activity, dose response: dose-dependent
C. difficile toxin B [3]
  inhibition of toxin B PNPG cleavage activity, dose response: dose-dependent
C. difficile spores
  effect on C. difficile spores in plate assay medium: serves as a germinant
[4]
  inhibition of cleavage activity of the toxins at low concentration: does not inhibit
Mammalian β-glucosidases; listed as Sodium taurocholate
  inhibition of β-glucosidases, mode: non-competitively inhibit
Mammalian β-glucosidases; listed as taurocholate
  inhibition of β-glucosidases, mode: non-competitive
C. difficile toxin A [5]
  inhibition at 300000 µM: 71%
C. difficile toxin B [6]
  inhibition at 300000 µM: 86%
